In the Kinase Knowledgebase extract (Sharma et al. 2016) one finds IC50 data, which are given here for 14 molecules.

For orientation: IC50 means the point on the concentration scale where inhibition reaches its midpoint.

The target in the test is EGFR (UniProt P00533).
Sequence of EGFR (P00533 whole entry, looked up): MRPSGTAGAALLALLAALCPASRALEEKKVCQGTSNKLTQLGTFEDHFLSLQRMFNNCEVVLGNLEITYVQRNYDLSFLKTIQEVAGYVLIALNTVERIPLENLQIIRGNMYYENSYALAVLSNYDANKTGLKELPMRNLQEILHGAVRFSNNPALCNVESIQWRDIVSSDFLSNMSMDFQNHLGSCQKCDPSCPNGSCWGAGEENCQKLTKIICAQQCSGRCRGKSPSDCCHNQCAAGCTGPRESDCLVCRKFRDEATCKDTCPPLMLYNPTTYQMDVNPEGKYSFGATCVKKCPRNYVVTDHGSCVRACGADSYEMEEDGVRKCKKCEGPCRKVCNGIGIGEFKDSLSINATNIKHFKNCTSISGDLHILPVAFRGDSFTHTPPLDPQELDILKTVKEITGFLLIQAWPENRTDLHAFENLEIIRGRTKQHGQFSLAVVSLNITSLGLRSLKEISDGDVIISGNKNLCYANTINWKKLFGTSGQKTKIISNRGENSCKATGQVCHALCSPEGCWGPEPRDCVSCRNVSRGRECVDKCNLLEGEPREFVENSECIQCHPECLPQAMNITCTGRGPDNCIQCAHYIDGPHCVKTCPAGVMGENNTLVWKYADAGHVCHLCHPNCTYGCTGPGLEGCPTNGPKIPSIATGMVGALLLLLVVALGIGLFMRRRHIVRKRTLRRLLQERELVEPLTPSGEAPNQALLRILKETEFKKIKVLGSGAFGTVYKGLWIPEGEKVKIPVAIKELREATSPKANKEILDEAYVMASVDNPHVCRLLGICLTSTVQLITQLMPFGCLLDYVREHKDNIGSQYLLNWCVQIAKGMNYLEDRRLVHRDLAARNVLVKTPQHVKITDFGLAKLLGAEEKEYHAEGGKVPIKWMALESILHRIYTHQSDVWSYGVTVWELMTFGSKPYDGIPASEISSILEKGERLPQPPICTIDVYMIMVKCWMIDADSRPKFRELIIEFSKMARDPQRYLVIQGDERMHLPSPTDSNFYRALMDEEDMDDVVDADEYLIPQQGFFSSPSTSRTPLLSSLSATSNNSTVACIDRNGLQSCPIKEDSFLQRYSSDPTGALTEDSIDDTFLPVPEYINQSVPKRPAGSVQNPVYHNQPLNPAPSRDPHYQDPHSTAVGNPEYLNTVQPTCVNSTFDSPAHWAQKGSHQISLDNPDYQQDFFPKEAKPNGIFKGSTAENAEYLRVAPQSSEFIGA
Turning to `COc1ccc(C2Cc3cnc(Nc4ccccc4)nc3N(CC(C)C)C2=O)cc1` (centres undefined), the IC50 was less than 10 µM.

On to `COc1ccc(C2Cc3cnc(Nc4ccccc4)nc3N(c3ccccc3)C2=O)cc1` (centres undefined), for which the IC50 is less than 10 µM.

Molecule `COc1ccc(C2Cc3cnc(Nc4ccccc4)nc3N(c3ccccc3)C2=O)cc1OC` (centres undefined) showed an IC50 greater than 10 µM. In the case of `COc1ccccc1C1Cc2cnc(Nc3ccccc3)nc2N(c2ccccc2)C1=O` (centres undefined), the IC50 was less than 10 µM.

`Cc1ccccc1C1Cc2cnc(Nc3ccccc3)nc2N(c2ccccc2)C1=O` (centres undefined) showed an IC50 of less than 10 µM. With `O=C1C(c2ccccc2)Cc2cnc(Nc3ccccc3)nc2N1c1ccccc1` (centres undefined), the IC50 was less than 10 µM. As for `COc1ccc(OC)c(C2Cc3cnc(Nc4ccccc4)nc3N(c3ccccc3)C2=O)c1` (centres undefined), the figure is less than 10 µM. In the case of `COc1ccc(C2Cc3cnc(Nc4ccc(OC)nc4)nc3N(c3ccccc3)C2=O)cc1` (centres undefined) it was less than 10 µM; in that of `O=C1C(c2c(Cl)cccc2Cl)Cc2cnc(Nc3ccccc3)nc2N1c1ccccc1` (centres undefined), less than 10 µM; in that of `O=C1C(c2cccnc2)Cc2cnc(Nc3ccccc3)nc2N1c1ccccc1` (centres undefined), less than 10 µM. As for `O=C1C(c2cc(C(F)(F)F)cc(C(F)(F)F)c2)Cc2cnc(Nc3ccccc3)nc2N1c1ccccc1` (centres undefined), the figure is greater than 10 µM.

With `COc1ccc(C2Cc3cnc(Nc4cccnc4)nc3N(CC3CC3)C2=O)cc1` (centres undefined), the IC50 is less than 10 µM. As for `O=C1C(c2ccncc2)Cc2cnc(Nc3ccccc3)nc2N1c1ccccc1` (centres undefined), the figure is less than 10 µM; as for `COc1cc(OC)cc(C2Cc3cnc(Nc4ccccc4)nc3N(c3ccccc3)C2=O)c1` (centres undefined), less than 10 µM.
